Results taken from ChEMBL document CHEMBL5500371, “Arginine and tryptophan-rich dendritic antimicrobial peptides that disrupt membranes for bacterial infection in vivo” (Eur J Med Chem, 2024).
Values after ≈ are worked out from the molar mass of the structure shown. Where a SMILES comes first, the peptide text is derived from it. Side-chain parts run from the residue outwards.

Columns and labels:
Pseudomonas aeruginosa = test: Antibacterial activity against Pseudomonas aeruginosa ATCC 27853 assessed as inhibition of bacterial growth incubated for 20 hrs by broth microdilution method; format: functional
Acinetobacter baumannii = test: Antibacterial activity against Acinetobacter baumannii ATCC 19606 assessed as inhibition of bacterial growth incubated for 20 hrs by broth microdilution method; format: functional
Bacillus subtilis = test: Antibacterial activity against Bacillus subtilis ATCC 23857 assessed as inhibition of bacterial growth incubated for 20 hrs by broth microdilution method; format: functional
Klebsiella pneumoniae = test: Antibacterial activity against Klebsiella pneumoniae ATCC 700603 assessed as inhibition of bacterial growth incubated for 20 hrs by broth microdilution method; format: functional
Escherichia coli = test: Antibacterial activity against Escherichia coli ATCC 25922 assessed as inhibition of bacterial growth incubated for 20 hrs by broth microdilution method; format: functional
Staphylococcus aureus = test: Antibacterial activity against Staphylococcus aureus ATCC 25923 assessed as inhibition of bacterial growth incubated for 20 hrs by broth microdilution method; format: functional
[1] = Cytotoxicity against HEK293T cells assessed as cell death measured after 1 hr by resazurin dye based analysis; format: toxicity, HEK-293T; conditions: human, HEK293T cells
Erythrocyte = test: Hemolytic activity in mouse erythrocytes assessed as 10% hemolysis incubated for 1 hr by absorbance based analysis; format: toxicity, cell-based

For `N=C(N)NCCC[C@H](NC(=O)[C@H](CCCNC(=N)N)NC(=O)[C@H](CCCNC(=N)N)NC(=O)[C@H](CCCNC(=N)N)NC(=O)[C@H](CCCNC(=N)N)NC(=O)[C@H](CCCCNC(=O)[C@H](Cc1c[nH]c2ccccc12)NC(=O)[C@H](Cc1c[nH]c2ccccc12)NC(=O)[C@@H](N)Cc1c[nH]c2ccccc12)NC(=O)[C@H](Cc1c[nH]c2ccccc12)NC(=O)[C@H](Cc1c[nH]c2ccccc12)NC(=O)[C@@H](N)Cc1c[nH]c2ccccc12)C(N)=O` (H-WWWK([Trp-Trp-Trp])RRRRR-NH2), which MIC (Pseudomonas aeruginosa) is on record?
Its MIC is 32 µM (≈ 65.4 µg/mL).

And the MIC (Acinetobacter baumannii)?
Its MIC is 32 µM (≈ 65.4 µg/mL).

What about the MIC (Bacillus subtilis) of the same molecule?
Its MIC is 8 µM (≈ 16.3 µg/mL).

And the MIC (Klebsiella pneumoniae)?
The MIC was 32 µM (≈ 65.4 µg/mL).

And the MIC (Escherichia coli)?
The MIC was 16 µM (≈ 32.7 µg/mL).

What about the MIC (Staphylococcus aureus) of the same molecule?
The MIC was 8 µM (≈ 16.3 µg/mL).

And the CC50 at 1 h [1]?
The CC50 at 1 h was 48.2 µM.

What about the MHC10 (Erythrocyte) of the same molecule?
Its MHC10 is 22.73 µM.

With `N=C(N)NCCC[C@H](NC(=O)[C@H](CCCNC(=N)N)NC(=O)[C@H](CCCNC(=N)N)NC(=O)[C@H](CCCNC(=N)N)NC(=O)[C@H](CCCNC(=N)N)NC(=O)[C@H](CCCNC(=N)N)NC(=O)[C@H](CCCCNC(=O)[C@H](Cc1c[nH]c2ccccc12)NC(=O)[C@H](Cc1c[nH]c2ccccc12)NC(=O)[C@@H](N)Cc1c[nH]c2ccccc12)NC(=O)[C@H](Cc1c[nH]c2ccccc12)NC(=O)[C@H](Cc1c[nH]c2ccccc12)NC(=O)[C@@H](N)Cc1c[nH]c2ccccc12)C(N)=O` (H-WWWK([Trp-Trp-Trp])RRRRRR-NH2) as the molecule, how does the MIC (Pseudomonas aeruginosa) read?
The MIC was 16 µM (≈ 35.2 µg/mL).

What about the MIC (Acinetobacter baumannii) of the same molecule?
Its MIC is 32 µM (≈ 70.4 µg/mL).

What about the MIC (Bacillus subtilis) of the same molecule?
The MIC was 8 µM (≈ 17.6 µg/mL).

What about the MIC (Klebsiella pneumoniae) of the same molecule?
The MIC was 32 µM (≈ 70.4 µg/mL).

And the MIC (Escherichia coli)?
Its MIC is 32 µM (≈ 70.4 µg/mL).

What about the MIC (Staphylococcus aureus) of the same molecule?
Its MIC is 16 µM (≈ 35.2 µg/mL).

What about the CC50 at 1 h [1] of the same molecule?
Its CC50 at 1 h is 41.7 µM.

And the MHC10 (Erythrocyte)?
Its MHC10 is 17.61 µM.

With H-RRKWW-NH2 as the molecule, how does the MIC (Pseudomonas aeruginosa) read?
The MIC was over 128 µM.

And the MIC (Acinetobacter baumannii)?
Its MIC is over 128 µM.

What about the MIC (Bacillus subtilis) of the same molecule?
The MIC was 64 µM.

And the MIC (Klebsiella pneumoniae)?
Its MIC is over 128 µM.

What about the MIC (Escherichia coli) of the same molecule?
The MIC was over 128 µM.

And the MIC (Staphylococcus aureus)?
The MIC was over 128 µM.

What about the CC50 at 1 h [1] of the same molecule?
The CC50 at 1 h was over 128 µM.

What about the MHC10 (Erythrocyte) of the same molecule?
The MHC10 was over 256 µM.

Which MIC (Pseudomonas aeruginosa) does the source give for H-RRKWWW-NH2 here?
The MIC was 128 µM.

What about the MIC (Acinetobacter baumannii) of the same molecule?
The MIC was 128 µM.

And the MIC (Bacillus subtilis)?
Its MIC is 16 µM.

And the MIC (Klebsiella pneumoniae)?
The MIC was over 128 µM.

And the MIC (Escherichia coli)?
The MIC was 64 µM.

And the MIC (Staphylococcus aureus)?
Its MIC is 64 µM.

What about the CC50 at 1 h [1] of the same molecule?
The CC50 at 1 h was over 128 µM.

What about the MHC10 (Erythrocyte) of the same molecule?
Its MHC10 is over 256 µM.

For H-RRRRKWWW-NH2, which MIC (Pseudomonas aeruginosa) is on record?
The MIC was 16 µM.

What about the MIC (Acinetobacter baumannii) of the same molecule?
Its MIC is 128 µM.

What about the MIC (Bacillus subtilis) of the same molecule?
Its MIC is 8 µM.

What about the MIC (Klebsiella pneumoniae) of the same molecule?
The MIC was 64 µM.

What about the MIC (Escherichia coli) of the same molecule?
Its MIC is 64 µM.

And the MIC (Staphylococcus aureus)?
The MIC was 8 µM.

What about the CC50 at 1 h [1] of the same molecule?
Its CC50 at 1 h is over 128 µM.

And the MHC10 (Erythrocyte)?
The MHC10 was over 256 µM.

Which MIC (Pseudomonas aeruginosa) does the source give for H-RRRRKWWWWW-NH2 here?
Its MIC is 32 µM.

What about the MIC (Acinetobacter baumannii) of the same molecule?
The MIC was 32 µM.

What about the MIC (Bacillus subtilis) of the same molecule?
The MIC was 4 µM.

And the MIC (Klebsiella pneumoniae)?
Its MIC is 16 µM.

What about the MIC (Escherichia coli) of the same molecule?
Its MIC is 8 µM.

And the MIC (Staphylococcus aureus)?
The MIC was 8 µM.

What about the CC50 at 1 h [1] of the same molecule?
The CC50 at 1 h was 63.6 µM.

And the MHC10 (Erythrocyte)?
Its MHC10 is 45.69 µM.

With H-RRRRRRKWWWWW-NH2 as the molecule, how does the MIC (Pseudomonas aeruginosa) read?
Its MIC is 32 µM.

And the MIC (Acinetobacter baumannii)?
The MIC was 32 µM.

What about the MIC (Bacillus subtilis) of the same molecule?
The MIC was 8 µM.

What about the MIC (Klebsiella pneumoniae) of the same molecule?
The MIC was 32 µM.

And the MIC (Escherichia coli)?
Its MIC is 16 µM.

And the MIC (Staphylococcus aureus)?
The MIC was 16 µM.

And the CC50 at 1 h [1]?
Its CC50 at 1 h is 55.1 µM.

What about the MHC10 (Erythrocyte) of the same molecule?
The MHC10 was 42.8 µM.

For H-RRRRRRKWWWWWW-NH2, which MIC (Pseudomonas aeruginosa) is on record?
The MIC was 64 µM.

And the MIC (Acinetobacter baumannii)?
The MIC was 16 µM.

What about the MIC (Bacillus subtilis) of the same molecule?
Its MIC is 8 µM.

And the MIC (Klebsiella pneumoniae)?
Its MIC is 32 µM.

What about the MIC (Escherichia coli) of the same molecule?
Its MIC is 16 µM.

And the MIC (Staphylococcus aureus)?
Its MIC is 32 µM.

What about the CC50 at 1 h [1] of the same molecule?
Its CC50 at 1 h is 51.5 µM.

What about the MHC10 (Erythrocyte) of the same molecule?
Its MHC10 is 24.89 µM.

With H-RRRRRRKWWWWWWW-NH2 as the molecule, how does the MIC (Pseudomonas aeruginosa) read?
Its MIC is 32 µM.

And the MIC (Acinetobacter baumannii)?
The MIC was 32 µM.

What about the MIC (Bacillus subtilis) of the same molecule?
Its MIC is 8 µM.

What about the MIC (Klebsiella pneumoniae) of the same molecule?
Its MIC is 32 µM.

And the MIC (Escherichia coli)?
The MIC was 16 µM.

What about the MIC (Staphylococcus aureus) of the same molecule?
The MIC was 8 µM.

And the CC50 at 1 h [1]?
Its CC50 at 1 h is 101 µM.

And the MHC10 (Erythrocyte)?
The MHC10 was 19.48 µM.

For H-WWKRR-NH2, which MIC (Pseudomonas aeruginosa) is on record?
Its MIC is over 128 µM.

And the MIC (Acinetobacter baumannii)?
Its MIC is over 128 µM.

What about the MIC (Bacillus subtilis) of the same molecule?
The MIC was 128 µM.

What about the MIC (Klebsiella pneumoniae) of the same molecule?
Its MIC is over 128 µM.

And the MIC (Escherichia coli)?
Its MIC is over 128 µM.

And the MIC (Staphylococcus aureus)?
The MIC was over 128 µM.

What about the CC50 at 1 h [1] of the same molecule?
The CC50 at 1 h was over 128 µM.

And the MHC10 (Erythrocyte)?
Its MHC10 is over 256 µM.

What does the source list for H-WWKRRR-NH2?
MIC (Pseudomonas aeruginosa): > 128 µM; MIC (Acinetobacter baumannii): > 128 µM; MIC (Bacillus subtilis): 64 µM; MIC (Klebsiella pneumoniae): > 128 µM; MIC (Escherichia coli): > 128 µM; MIC (Staphylococcus aureus): > 128 µM; CC50 at 1 h [1]: > 128 µM; MHC10 (Erythrocyte): > 256 µM

Which MIC (Pseudomonas aeruginosa) does the source give for H-WWWWKRRR-NH2 here?
The MIC was 16 µM.

And the MIC (Acinetobacter baumannii)?
The MIC was 32 µM.

What about the MIC (Bacillus subtilis) of the same molecule?
Its MIC is 8 µM.

And the MIC (Klebsiella pneumoniae)?
The MIC was 64 µM.

What about the MIC (Escherichia coli) of the same molecule?
Its MIC is 32 µM.

What about the MIC (Staphylococcus aureus) of the same molecule?
Its MIC is 8 µM.

And the CC50 at 1 h [1]?
The CC50 at 1 h was over 128 µM.

And the MHC10 (Erythrocyte)?
The MHC10 was over 256 µM.

Which MIC (Pseudomonas aeruginosa) does the source give for H-WWWWKRRRRR-NH2 here?
Its MIC is 16 µM.

And the MIC (Acinetobacter baumannii)?
The MIC was 32 µM.

What about the MIC (Bacillus subtilis) of the same molecule?
The MIC was 8 µM.

What about the MIC (Klebsiella pneumoniae) of the same molecule?
The MIC was 32 µM.

And the MIC (Escherichia coli)?
The MIC was 16 µM.

And the MIC (Staphylococcus aureus)?
Its MIC is 8 µM.

What about the CC50 at 1 h [1] of the same molecule?
Its CC50 at 1 h is 116 µM.

What about the MHC10 (Erythrocyte) of the same molecule?
The MHC10 was over 256 µM.
